Source: patent EP1210336B1, “SUBSTITUTED BENZIMIDAZOLES AS NON-NUCLEOSIDE INHIBITORS OF REVERSE TRANSCRIPTASE” (THE UNITED STATES OF AMERICA, as represented by the …, priority 1999, dated 2001)
Like-named read-outs stand apart in the source and are kept apart here.

Experiments:
WT virus (NL4-3) = experiment: microbe, parasite or virus in culture; type: cell-based, HIV-1; settings: Human immunodeficiency virus 1, NL43, CEM-SS, read-out: EC50
Method: Evaluation of these compounds for the inhibition of HIV-1 was determined as the fifty percent cell culture inhibitory concentration (CIC50) in CEMSS cell culture with WT virus (NL4-3).
(§1) In this Example, the antiviral and cellular toxicity of NNRTIs was investigated, using the cytopathic cell killing assay described by Yang (Yang et al., "Characteristics of a Group of Non-nucleoside Reverse Transcriptase Inhibitors with Structural Diversity and Potent Anti-Human Immunodeficiency Virus Activity," Leukemia 9:S75-S85 [1995]). Briefly, in this method cells (e.g., the CEM-SS cell line, available from the NIAID AIDS Research and Reference Program [ARRRP]) were seeded at a density of 5 x 10^3 cells/well, into the wells of a 96-well microtiter plate. The cells were then infected with HIV virus (either mutant or WT), at a multiplicity of infection (MOI) previously determined to provide complete cell killing by 6 days of culture post-infection (e.g., MOI of 0.01-0.05). Each of the HIV isolates was pre-titered to induce equivalent levels of infection based on cell killing or virus production, prior to their use in these assays. A range of test compound concentrations was added to the wells in triplicate (e.g., serial half-log dilutions) to evaluate inhibition of HIV infection. Controls for each assay included drug controls (drug colorimetric control wells), drug cytotoxicity control wells (cells with drug), virus control wells (cells with virus), and cell viability controls (cells only). Positive control drugs (e.g., AZT and ddC) were also run in parallel.
(§2) After six days of incubation at 37°C, cell viability was determined spectrophotometrically at 450 nm for each well, using the metabolic reduction of XTT to a soluble colored formazan. (See, Gartner and Popovic, "Virus Isolation and Production, in Aldovini and Walker (eds.), Techniques in HIV Research, Stockton Press, NY, pp. […] [1991]; and Nara and Fischinger, "Quantitative Infectivity Assay for HIV-1 and HIV-2," Nature 332:469-470 [1988]).
(§3) The in vitro therapeutic index (TI50) was defined as the fold-difference between the EC50 and IC50. The results for the various compounds are included in Figures 8 and 19.

NL4-3 (WT) = experiment: Cytopathic cell killing assay, cross-resistance profile, infected MT-4 cells; type: cell-based, HIV-1
Text: (§4) The various HIV isolates tested in the Figures are those corresponding to wild-type virus (NL4-3) and the other strains listed by their RT mutations. The three 4xAZT isolates included in the Figures represent AZT drug-resistant variants. For example, the 4xAZT/L100I isolate has five mutations: four mutations confer increased resistance to AZT, and the other mutation is located within the NNRTI binding pocket. TZB and nevir. (nevirapine) are two well-known NNRTIs, included in this experiment for comparison purposes. […]
as §1, §2, §3

HIV-1 variant V106A = experiment: as above; type: cell-based
Text: as §4, §1, §2, §3

HIV-1 variant K103N = experiment: as above; type: cell-based; settings: for EC50: isolate K103N
Text: as §4, §1, §2, §3

HIV-1 variant Y181C = experiment: as above; type: cell-based; settings: isolate Y181C
Text: as §4, §1, §2, §3

HIV-1 variant A98G = experiment: as above; type: cell-based
Text: as §4, §1, §2, §3

HIV-1 variant L74V = experiment: as above; type: cell-based
Text: as §4, §1, §2, §3

HIV-1 variant Y188C = experiment: as above; type: cell-based
Text: as §4, §1, §2, §3

HIV-1 variant V179D = experiment: as above; type: cell-based; settings: isolate V179D
Text: as §4, §1, §2, §3

[1] = system: HIV-1 isolate 4xAZT/Y181C; experiment: as above; type: cell-based
Text: as §4, §1, §2, §3

HIV-1 isolate 4xAZT = experiment: as above; type: cell-based
Text: as §4, §1, §2, §3

HIV-1 variant K101E = experiment: as above; type: cell-based
Text: as §4, §1, §2, §3

HIV-1 variant L100I = experiment: as above; type: cell-based
Text: as §4, §1, §2, §3

HIV-1 variant V108I = experiment: as above; type: cell-based
Text: as §4, §1, §2, §3

HIV-1 WT RT = target: T1, HIV-1 WT RT (Human immunodeficiency virus type 1 group M subtype B, UniProt P03366); experiment: biochemical; settings: for IC50: read-out: IC50
T1 construct: purified RT protein (0.015 mg/mL) was incubated in a 100 µL reaction mixture

[2] = system: HIV-1 isolate 4xAZT/L100I; experiment: Cytopathic cell killing assay, cross-resistance profile, infected MT-4 cells; type: cell-based
Method: The various HIV isolates tested in the Figures are those corresponding to wild-type virus (NL4-3) and the other strains listed by their RT mutations. The three 4xAZT isolates included in the Figures represent AZT drug-resistant variants. […]
as §1, with “Briefly,” for “In this Example, the antiviral and cellular toxicity of NNRTIs was investigated, using the cytopathic cell killing assay described by Yang (Yang et al., "Characteristics of a Group of Non-nucleoside Reverse Transcriptase Inhibitors with Structural Diversity and Potent Anti-Human Immunodeficiency Virus Activity," Leukemia 9:S75-S85 [1995]). Briefly,”
as §2
The in vitro therapeutic index (TI50) was defined as the fold-difference between the EC50 and IC50.

HIV-1 variant Y188H = experiment: as above; type: cell-based; settings: Human immunodeficiency virus 1, MT4
Text: as §4, §1, §2, §3

HIV-1 variant M184l = experiment: as above; type: cell-based; settings: Human immunodeficiency virus 1, MT4
Text: as §4, §1, §2, §3

[3] = Table 11, CEMSS/NL4-3, NRVC = reduction in viral CPE not seen (footnote)
[4] = Human immunodeficiency virus 1, MT4, Table 4
[5] = Human immunodeficiency virus 1, MT4, Table 9
[6] = Human immunodeficiency virus 1, MT4, Table 8
[7] = Human immunodeficiency virus 1, MT4, Table 10 (values in µM)

SMILES: Fc1cccc(F)c1Cn1c(-c2c(F)cccc2F)nc2ccccc21 [compound 26, 1-(2,6-difluorobenzyl)-2-(2,6-difluorophenyl)benzimidazole]
- EC50 (WT virus (NL4-3); [3]): 1700 nM
- EC50 (NL4-3 (WT); Human immunodeficiency virus 1, NL43, MT4, Table 4, isolate NL4-3 (WT)): 1.85 µM
- EC50 (NL4-3 (WT); Human immunodeficiency virus 1, NL43, MT4, Table 9, isolate NL4.3): 2.2 µM
- EC50 (HIV-1 variant V106A; Human immunodeficiency virus 1, MT4, Table 4, isolate V106A): > 20000 nM
- EC50 (HIV-1 variant V106A; Human immunodeficiency virus 1, MT4, Table 9, isolate V106A): > 20000 nM
- EC50 (HIV-1 variant K103N; [4]): 12.9 µM
- EC50 (HIV-1 variant K103N; [5]): > 10 µM
- EC50 (HIV-1 variant Y181C; [4]): 15.2 µM
- EC50 (HIV-1 variant Y181C; [5]): 14 µM
- EC50 (HIV-1 variant A98G; Human immunodeficiency virus 1, MT4, Table 4, isolate A98G): 4750 nM
- EC50 (HIV-1 variant A98G; Human immunodeficiency virus 1, MT4, Table 9, isolate A98G): 4700 nM
- EC50 (HIV-1 variant L74V; Human immunodeficiency virus 1, MT4, Table 4, isolate L74V): 460 nM
- EC50 (HIV-1 variant L74V; Human immunodeficiency virus 1, MT4, Table 9, isolate 1.74 V): 1900 nM
- EC50 (HIV-1 variant Y188C; Human immunodeficiency virus 1, MT4, Table 4, isolate Y188C): 11700 nM
- EC50 (HIV-1 variant Y188C; Human immunodeficiency virus 1, MT4, Table 9, isolate Y188C): > 10000 nM
- EC50 (HIV-1 variant V179D; [4]): 2300 nM
- EC50 (HIV-1 variant V179D; [5]): 2900 nM
- EC50 ([1]; Human immunodeficiency virus 1, MT4, Table 4, isolate 4xAZT/Y181C): > 20000 nM
- EC50 ([1]; Human immunodeficiency virus 1, MT4, Table 9, isolate 4XAZT /Y181C): 20000 nM
- EC50 (HIV-1 isolate 4xAZT; Human immunodeficiency virus 1, MT4, Table 4, isolate 4xAZT): 270 nM
- EC50 (HIV-1 isolate 4xAZT; Human immunodeficiency virus 1, MT4, Table 9, isolate 4XAZT): 300 nM
- EC50 (HIV-1 variant K101E; Human immunodeficiency virus 1, MT4, Table 4, isolate K101E): > 20 µM
- EC50 (HIV-1 variant K101E; Human immunodeficiency virus 1, MT4, Table 9, isolate KIOIE): > 20 µM
- EC50 (HIV-1 variant L100I; Human immunodeficiency virus 1, MT4, Table 4, isolate L1001): 1.36 µM
- EC50 (HIV-1 variant L100I; Human immunodeficiency virus 1, MT4, Table 9, isolate L1001): 1.3 µM
- EC50 (HIV-1 variant V108I; Human immunodeficiency virus 1, MT4, Table 4, isolate V108I): 10.4 µM
- EC50 (HIV-1 variant V108I; Human immunodeficiency virus 1, MT4, Table 9, isolate V1081): > 10 µM
- inhibition at 10 µM (HIV-1 WT RT; Table 1, WT RT, 10 µM drug concentration, read-out: %inhibn (10µM)): 93%
- IC50 (HIV-1 WT RT; Table 1, quantity of drug required to reduce WT RT enzyme activity by 50%): 110 nM
- %inhibn (10µM) (HIV-1 WT RT; Table 2, WT RT, 10 µM drug concentration): 93%
- IC50 (HIV-1 WT RT; Table 11, WT RT): 110 nM
- EC50 ([2]; Human immunodeficiency virus 1, MT4, Table 4, isolate 4xAZT/L.1001): 840 nM
- EC50 ([2]; Human immunodeficiency virus 1, MT4, Table 9, isolate 4XAZT /L1001): 900 nM

SMILES: COc1cccc2c1nc(-c1c(F)cccc1F)n2Cc1c(F)cccc1F [compound 44, 1-(2,6-difluorobenzyl)-2-(2,6-difluorophenyl)-4-methoxylbenzimidazole]
- EC50 (WT virus (NL4-3); Table 7, concentration reducing cell killing or virus production by 50%, HIV-1 WT): 4.6 nM
- EC50 (WT virus (NL4-3); [3]): 60 nM
- EC50 (WT virus (NL4-3); cytopathic cell killing assay, HIV-1 WT): 4.6 nM
- EC50 (NL4-3 (WT); Human immunodeficiency virus 1, NL43, MT4, Table 8, isolate N1.43): 0.06 µM
- EC50 (NL4-3 (WT); Human immunodeficiency virus 1, NL43, MT4, Table 10 (values in µM), isolate NL4-3 (WT)): 0.165 µM
- EC50 (HIV-1 variant Y188H): 260 nM
- EC50 (HIV-1 variant M184l): 160 nM
- EC50 (HIV-1 variant V106A; Human immunodeficiency virus 1, MT4, Table 8, isolate V 106A): 1400 nM
- EC50 (HIV-1 variant K103N; [6]): > 20 µM
- EC50 (HIV-1 variant K103N; [7]): > 50 µM
- activity against the K103N mutation / isolate (HIV-1 variant K103N; result in words, cytopathic cell killing assay): failed to show any activity
- EC50 (HIV-1 variant Y181C; [7]): 0.26 µM
- EC50 (HIV-1 variant A98G; Human immunodeficiency virus 1, MT4, Table 8, isolate A9SG): 300 nM
- EC50 (HIV-1 variant L74V; Human immunodeficiency virus 1, MT4, Table 8, isolate 1.74V): 80 nM
- EC50 (HIV-1 variant Y188C; Human immunodeficiency virus 1, MT4, Table 8, isolate Y 188C): 300 nM
- EC50 (HIV-1 variant V179D; [6]): 200 nM
- EC50 (HIV-1 isolate 4xAZT; Human immunodeficiency virus 1, MT4, Table 8, isolate 4XAZT): 6000 nM
- EC50 (HIV-1 variant K101E; Human immunodeficiency virus 1, MT4, Table 8, isolate K101E): 3.3 µM
- EC50 (HIV-1 variant K101E; Human immunodeficiency virus 1, MT4, Table 10 (values in µM), isolate K101E): 2.82 µM
- EC50 (HIV-1 variant L100I; Human immunodeficiency virus 1, MT4, Table 8, isolate 1.1001): 0.1 µM
- EC50 (HIV-1 variant L100I; Human immunodeficiency virus 1, MT4, Table 10 (values in µM), isolate L1001): 0.16 µM
- EC50 (HIV-1 variant V108I; Human immunodeficiency virus 1, MT4, Table 8, isolate V1081): 2.5 µM
- EC50 (HIV-1 variant V108I; Human immunodeficiency virus 1, MT4, Table 10 (values in µM), isolate V108l): 2.82 µM
- IC50 (HIV-1 WT RT; HIV-1 WT RT): 7.3 nM
- IC50 (HIV-1 WT RT; Table 7, HIV-1 WT RT): 7.3 nM
- inhibition at 1 µM (HIV-1 WT RT; Table 7, WT HIV-1 RT, 1 µM drug, read-out: %inhibn (1µM)): 85%
- IC50 (HIV-1 WT RT; Table 11, WT RT): 7.3 nM
- IC50 (HIV-1 WT RT; WT RT): 7.3 nM
